Measured values published in patent US9440938B2, “Sulfonamide derivative having PGD2 receptor antagonistic activity” (SHIONOGI & CO., LTD., priority 2005, dated 2016).
Read-outs that look alike come from different tables or passages of the source.

Legend:
DP receptor [1] = target: T1, DP receptor (Homo sapiens, UniProt Q13258); assay: cAMP assay with washed platelet (DP inhibitory activity in vitro); format: cell-based; conditions: washed human platelets, 100 nM PGD2, cAMP by HTRF
T1 construct: endogenous in cells; host or cells: washed platelets from peripheral blood of a healthy volunteer
T1 sequence (Q13258 1-359): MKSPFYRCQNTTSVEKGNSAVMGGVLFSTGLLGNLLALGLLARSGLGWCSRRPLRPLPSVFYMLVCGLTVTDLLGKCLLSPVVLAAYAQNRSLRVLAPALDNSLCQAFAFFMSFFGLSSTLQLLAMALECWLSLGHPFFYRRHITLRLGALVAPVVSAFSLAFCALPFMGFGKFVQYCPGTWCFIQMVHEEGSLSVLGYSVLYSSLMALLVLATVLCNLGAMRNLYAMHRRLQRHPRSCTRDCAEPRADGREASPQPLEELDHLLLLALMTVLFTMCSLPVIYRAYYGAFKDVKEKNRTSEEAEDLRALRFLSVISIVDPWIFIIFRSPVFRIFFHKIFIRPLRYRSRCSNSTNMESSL
Protocol: 1) Preparation of Platelet and a Method of cAMP Assay
30 mL of peripheral blood was collected from a healthy volunteer using a syringe containing one ninth amount of 3.8% sodium citrate. After being centrifuged at 180 g for 10 minutes at room temperature, a supernatant was collected and used as Platelet Rich Plasma (PRP). The resulting PRP was washed with wash buffer and centrifuged three times (Washed Platelet: WP) and platelets were counted by a microcell counter. WP was added to a plate in amount of 1.5×10^8/assay and the plate was treated with 3-isobutyl-1-methylxanthin (IBMX; 0.5 mM) for 5 minutes. A reaction was initiated by adding 100 nM of PGD2 5 min after an addition of a test compound. The reaction was terminated with an addition of 1N hydrochloric acid after 2 minutes and the cells were destructed using 12% triton X-100. An amount of cAMP in the supernatant was assayed by Homogeneous Trangient Fluorescence (HTRF)

DP receptor [2] = target: T1, DP receptor; assay: Receptor binding assay, [3H]-PGD2, platelet membrane; conditions: [3H]-PGD2, human platelet membrane
Protocol: 2) Receptor Binding Assay
A prepared WP was homogenated and a membrane fraction was collected with high-speed centrifugation. A compound of the present invention or a reference compound A (No. IC-73 in WO 2003/097598) was added to the plate and [^3H]-PGD2 was also added. A platelet membrane, a protein concentration is 2 mg/mL, was added and mixed in the plate, and placed on ice for 2 hours. The reaction solution was transferred to a low protein-adsorptive filter and washed with a wash solution eight times using a cell harvester. After the final washing, water was removed sufficiently, and scintillator was added. DP inhibitory activity was investigated by measuring [^3H] by using Micro Beta.

OVA asthma model of rat = assay: Test using OVA asthma model of rat (airway hyperresponsiveness, infiltration of inflammatory cells, mucus-secretion); format: in vivo, Brown Norway (BN) Rats; conditions: po, 72 h
Protocol: Test Using OVA Asthma Model of Rat
Brown Norway (BN) Rats were sensitized by i.p. administration of 0.1 mg/mL of ovalbumin (OVA) and 1 mg of aluminum hydroxide gel. A solution of 1% OVA was aerosolized by ultrasonic nebulizer (NE-U17) and the rats were subjected to inhalation exposure of the aerosol for 30 minutes in an exposing chamber 12, 19, 26 and 33 days after the sensitization. One hour before the 4th exposure of the antigen, compounds of the present invention were administered in a dose of 10 mg/kg p.o. once a day for three days consecutively. In a control group, 0.5% of methyl cellulose was administered in place of the compound of the present invention.
Under pentobarbital anesthesia (80 mg/kg, i.p.), acetylcholine (3.9, 7.8, 15.6, 31.3, 62.5, 125, 250 and 500 μg/kg) was injected to jugular vein of the rats successively from a lower dose at intervals of 5 minutes three days after the fourth exposure to the antigen, and immediate contractile reaction of airways (an increase of insufflation pressure) was measured by a modified method of Konnzett & Ririssler. Inhibition rate of airway hyperresponsiveness against the control group was calculated based on area under the curve (AUC) obtained from concentration-response curve of acetylcholine.
After the measurement of increased hyperresponsive airway was completed, bronchoalveoli of the rats were washed with 5 mL of saline three times. Total cell number in the washings was counted by a hemacytometer under light microscope, and inhibition rates of infiltration of inflammatory cells against the control group were calculated. Further, mucin in the airway lavage fluid was measured by ELISA method using jacalin, a mucin-binding lectin, and the inhibition rates of mucus-secretion against the control group were calculated.

[3] = read-out: IC50 (50% DP-inhibitory concentration in the cAMP assay)

Row | Compound | IC50 (DP receptor [1]; [3]) [nM] | Ki (DP receptor [2]) [nM] | further results
1 | CC(C)Oc1ccc(S(=O)(=O)N2CCC(Oc3ccccc3/C=C/C(=O)O)CC2)cc1 [Compound I-7] | 2400 |  | 
2 | COc1cccc(OC2CCN(S(=O)(=O)c3ccc(OC(C)C)cc3)CC2)c1/C=C/C(=O)O [Compound I-8] | 2100 |  | 
3 | CC(C)Oc1ccc(S(=O)(=O)N2CCC(Oc3ccc(Cl)cc3CCC(=O)O)CC2)cc1 [Compound I-10] | 2700 | 30000 | 
4 | CC(C)Oc1ccc(S(=O)(=O)N2CCC(Oc3ccccc3CCC(=O)O)CC2)cc1 [Compound I-11] | 3000 |  | 
5 | COc1cccc(OC2CCN(S(=O)(=O)c3ccc(OC(C)C)cc3)CC2)c1CCC(=O)O [Compound I-12] | 4200 |  | 
6 | CC(C)Oc1ccc(S(=O)(=O)N2CCC(Oc3ccc(F)cc3CCC(=O)O)CC2)cc1 [Compound I-18] | 1600 |  | 
7 | CC(C)Oc1ccc(S(=O)(=O)N2CC=C(c3ccc(Cl)c(OCC(=O)O)c3)CC2)cc1 [Compound I-30] | 510 |  | 
8 | CC(C)Oc1ccc(S(=O)(=O)N2CCC(c3ccc(Cl)c(OCC(=O)O)c3)CC2)cc1 [Compound I-31] | 160 | 3600 | 
9 | Cc1ccc(N2CCN(S(=O)(=O)c3ccc(OC(C)C)cc3)CC2)cc1OCC(=O)O [II-8] | 4600 |  | 
10 | CC(C)Oc1ccc(S(=O)(=O)N2CCN(c3ccc(Cl)c(OCC(=O)O)c3)CC2)cc1 [II-10] | 410 | 650 | 
11 | CC(C)Oc1ccc(S(=O)(=O)N2CCN(c3cccc(OCC(=O)O)n3)CC2)cc1 [II-11] | 2300 |  | 
12 | CC(C)Oc1ccc(S(=O)(=O)N2CCN(c3ccc(Cl)c(/C=C/C(=O)O)c3)CC2)cc1 [II-18] | 4900 |  | 
13 | CC(C)Oc1ccc(S(=O)(=O)N2CCN(c3ccc(Cl)c(CC(=O)O)c3)CC2)cc1 [II-20] | 4300 |  | 
14 | CC(C)Oc1ccc(S(=O)(=O)N2CCN(c3cc(F)cc(OCC(=O)O)c3)CC2)cc1 [II-25] | 670 | 1600 | 
15 | CC(C)Oc1ccc(S(=O)(=O)N2CCN(c3ccc(NC(=O)c4ccccc4)c(OCC(=O)O)c3)CC2)cc1 [II-28] | 2500 | 3800 | 
16 | CC(C)Oc1ccc(S(=O)(=O)N2CCN(c3ccc(Cl)c(OCC(=O)O)c3)CC2)cc1F [II-31] | 810 | 3700 | 
17 | COCC#Cc1cc(OCC(=O)O)cc(N2CCN(S(=O)(=O)c3ccc(OC(C)C)cc3)CC2)c1 [II-37] | 1500 |  | 
18 | Cc1cc(OCC(=O)O)cc(N2CCN(S(=O)(=O)c3ccc(OC(C)C)cc3)CC2)c1 [II-41] | 3500 |  | 
19 | CC(C)Oc1ccc(S(=O)(=O)N2CCN(c3ccc(Cl)c(OCC(=O)O)c3)C(C)C2)cc1 (stereo not shown) [II-44] | 690 | 1600 | 
20 | CC(C)Oc1ccc(S(=O)(=O)N2CCN(c3ccc(-c4nnco4)c(OCC(=O)O)c3)CC2)cc1 [II-46] | 790 | 870 | 
21 | CC(C)Oc1ccc(S(=O)(=O)N2CCN(c3ccc(NC(=O)c4ccccn4)c(OCC(=O)O)c3)CC2)cc1 [II-47] | 3100 | 2200 | 
22 | CC(C)Oc1ccc(S(=O)(=O)N2CCN(c3ccc(NC(=O)c4cccnc4)c(OCC(=O)O)c3)CC2)cc1 [II-48] | 4600 |  | 
23 | CC(C)Oc1ccc(S(=O)(=O)N2CCN(c3cc(OCC(=O)O)cc(-c4cccs4)c3)CC2)cc1 [II-51] | 640 | 520 | 
24 | CC(C)Oc1ccc(S(=O)(=O)N2CCN(c3ccc(-c4ccccc4)c(OCC(=O)O)c3)CC2)cc1 [II-53] | 2300 |  | 
25 | CC(C)Oc1ccc(S(=O)(=O)N2CCN(c3cc(F)c(F)c(OCC(=O)O)c3)CC2)cn1 [II-55] | 3000 |  | 

Row | Compound | IC50 (DP receptor [1]; [3]) [nM] | Ki (DP receptor [2]) [nM] | further results
26 | CC(C)Oc1ccc(S(=O)(=O)N2CCN(c3cc(OCC(=O)O)cc(-c4ccccc4)c3)CC2)cc1 [II-57] | 1200 |  | 
27 | CC(C)Oc1ccc(S(=O)(=O)N2CCN(c3ccc(NC(=O)c4ccno4)c(OCC(=O)O)c3)CC2)cc1 [II-58] | 3500 |  | 
28 | COC(=O)Nc1ccc(N2CCN(S(=O)(=O)c3ccc(OC(C)C)cc3)CC2)cc1OCC(=O)O [II-59] | 4300 |  | 
29 | Cc1cc(C(=O)Nc2ccc(N3CCN(S(=O)(=O)c4ccc(OC(C)C)cc4)CC3)cc2OCC(=O)O)no1 [II-60] | 880 | 2600 | 
30 | Cc1nnc(-c2ccc(N3CCN(S(=O)(=O)c4ccc(OC(C)C)cc4)CC3)cc2OCC(=O)O)o1 [II-61] | 2100 | 1400 | 
31 | CC(C)Oc1ccc(S(=O)(=O)N2CCN(c3ccc(C(=O)Nc4ccccc4)c(OCC(=O)O)c3)CC2)cc1 [II-62] | 1100 | 4700 | 
32 | CC(C)NC(=O)c1ccc(N2CCN(S(=O)(=O)c3ccc(OC(C)C)cc3)CC2)cc1OCC(=O)O [II-63] |  |  | inhibition in vivo at 10 mg/kg (OVA asthma model of rat; BN rats, 10 mg/kg p.o. once a day for three days, mucin in airway lavage fluid by ELISA against control group, read-out: inhibition rate (%) mucus-secretion): 79%; inhibition in vivo at 10 mg/kg (OVA asthma model of rat; BN rats, 10 mg/kg p.o. once a day for three days, total cell number in bronchoalveolar washings against control group, read-out: inhibition rate (%) infiltration of inflammatory cells): 59%; inhibition in vivo at 10 mg/kg (OVA asthma model of rat; read-out: inhibition rate (%) airway hyperresponsiveness): 41%
33 | CC(C)Oc1ccc(S(=O)(=O)N2CCN(c3ccc(-c4ccco4)c(OCC(=O)O)c3)CC2)cc1 [II-65] | 140 | 16000 | 
34 | CC(C)OC(=O)Nc1ccc(N2CCN(S(=O)(=O)c3ccc(OC(C)C)cc3)CC2)cc1OCC(=O)O [II-67] | 1700 |  | 
35 | CC(C)NC(=O)Nc1ccc(N2CCN(S(=O)(=O)c3ccc(OC(C)C)cc3)CC2)cc1OCC(=O)O [II-68] | 17000 |  | 
36 | CC(C)Oc1ccc(S(=O)(=O)N2CCN(c3cc(OCC(=O)O)ccc3Cl)CC2)cc1 [II-69] | 1400 |  | 
37 | CC(C)Oc1ccc(S(=O)(=O)N2CCN(c3ccc(OCc4ccccc4)c(OCC(=O)O)c3)CC2)cc1 [II-71] | 4100 |  | 
38 | Cc1cnc(-c2ccc(N3CCN(S(=O)(=O)c4ccc(OC(C)C)cc4)CC3)cc2OCC(=O)O)o1 [II-73] | 1000 | 1100 | 
39 | CC(C)Oc1ccc(S(=O)(=O)N2CCN(c3ccc(-c4ncco4)c(OCC(=O)O)c3)CC2)cc1 [II-74] | 520 | 240 | 
40 | Cc1nnc(-c2ccc(N3CCN(S(=O)(=O)c4ccc(OC(C)C)cc4)CC3)cc2OCC(=O)O)s1 [II-75] | 580 | 580 | 
41 | CC(C)Oc1ccc(S(=O)(=O)N2CCN(c3ccc(OCc4ccoc4)c(OCC(=O)O)c3)CC2)cc1 [II-77] | 3600 |  | 
42 | CC(C)Oc1ccc(S(=O)(=O)N2CCN(c3ccc(Oc4ccccc4)c(OCC(=O)O)c3)CC2)cc1 [II-79] | 2300 |  | 
43 | CC(C)Oc1ccc(S(=O)(=O)N2CCN(c3ccc(C(N)=O)c(OCC(=O)O)c3)CC2)cc1 [II-81] | 1800 | 2600 | 
44 | CNC(=O)c1ccc(N2CCN(S(=O)(=O)c3ccc(OC(C)C)cc3)CC2)cc1OCC(=O)O [II-82] | 1100 | 5000 | 
45 | CCCNC(=O)c1ccc(N2CCN(S(=O)(=O)c3ccc(OC(C)C)cc3)CC2)cc1OCC(=O)O [II-83] | 2000 | 20000 | 
46 | CC(C)Oc1ccc(S(=O)(=O)N2CCN(c3ccc(-c4cnco4)c(OCC(=O)O)c3)CC2)cn1 [II-85] |  | 1700 | IC50 (DP receptor [1]): 510 nM
47 | CC(C)Oc1ccc(S(=O)(=O)N2CCN(c3ccc(-c4nncs4)c(OCC(=O)O)c3)CC2)cc1 [II-88] | 230 | 1500 | 
48 | CC(C)Oc1ccc(S(=O)(=O)N2CCN(c3ccc(Br)c(OCC(=O)O)n3)CC2)cc1 [II-90] | 590 |  | 
49 | CC(=O)c1ccc(N2CCN(S(=O)(=O)c3ccc(OC(C)C)cc3)CC2)cc1OCC(=O)O [II-91] | 1300 |  | 
